The values below come from patent US20240384350A1, “METHODS OF TREATING CANCER WITH KINASE INHIBITORS” (BOARD OF REGENTS, THE UNIVERSITY OF TEXAS SYSTEM, priority 2021, published 2024).

Common to all, as to test: Ba/F3 drug screening, Cell Titer Glo, IC50 Mut/WT
Type in all cases: cell-based

In one assay the target is T1, EGFR S784F (Homo sapiens, UniProt P00533, S784F).
T1 construct: expressed in transfected cells; host or cells: Ba/F3 cells, retroviral pBabe-Puro vector (vector made by GeneScript from EGFR WT)
The conditions noted are these: Classical-Like, 72 hours.

The next assay deals with T2, EGFR L833V (Homo sapiens, UniProt P00533, L833V).
T2 construct: expressed in transfected cells; host or cells: Ba/F3 cells, retroviral pBabe-Puro vector
The following applies: Classical-Like, 72 hours.

Another assay addresses T3, EGFR T725M (Homo sapiens, UniProt P00533, T725M).
T3 construct: expressed in transfected cells; host or cells: Ba/F3 cells, retroviral pBabe-Puro vector (vector made by GeneScript from EGFR WT)
The conditions noted are these: Classical-Like, 72 hours.

Another assay addresses T4, EGFR L861R (Homo sapiens, UniProt P00533, L861R).
T4 construct: expressed in transfected cells; host or cells: Ba/F3 cells, retroviral pBabe-Puro vector (vector made by GeneScript from EGFR WT)
The following applies: Classical-Like, 72 hours.

A further assay concerns the target T5, EGFR D761N (Homo sapiens, UniProt P00533, D761N).
T5 construct: expressed in transfected cells; host or cells: Ba/F3 cells, retroviral pBabe-Puro vector
The conditions noted are these: Classical-Like, 72 hours.

In the next assay the target is T6, EGFR A767insASV (Homo sapiens, UniProt P00533, DUP767-769).
T6 construct: expressed in transfected cells; host or cells: Ba/F3 cells, retroviral pBabe-Puro vector
The following applies: Ex20, 72 hours.

In a further assay the target is T7, EGFR S768dupSVD V769M (Homo sapiens, UniProt P00533, INS768MDS/V769M).
T7 construct: expressed in transfected cells; host or cells: Ba/F3 cells, retroviral pBabe-Puro vector (vector made by GeneScript from EGFR S768dupSVD, c.2305G > A)
The conditions noted are these: Ex20, 72 hours.

The target in a further assay is T8, EGFR G719A T790M (Homo sapiens, UniProt P00533, G719A/T790M).
T8 construct: expressed in transfected cells; host or cells: Ba/F3
The following applies: T790M-like-3S, 72 hours.

In the next assay the target is T9, EGFR L858R T790M V843I (Homo sapiens, UniProt P00533, L858R/T790M/V843I).
T9 construct: expressed in transfected cells; host or cells: Ba/F3
The conditions noted are these: T790M-like-3S, 72 hours.

In the next assay the target is T10, EGFR L858R/T790M/L718Q (Homo sapiens, UniProt P00533, L718Q/L858R/T790M).
T10 construct: expressed in transfected cells; host or cells: Ba/F3
The conditions noted are these: T790M-like-3R, 72 hours.

The target of a further assay is T11, EGFR L858R/T790M/C797S (Homo sapiens, UniProt P00533, C797S/L858R/T790M).
T11 construct: expressed in transfected cells; host or cells: Ba/F3
The conditions noted are these: T790M-like-3R, 72 hours.

The target in a further assay is T12, EGFR E709A (Homo sapiens, UniProt P00533, E709A).
T12 construct: expressed in transfected cells; host or cells: Ba/F3
The following applies: for ratio of IC50 for cells with mutant EGFR to IC50 for cells with wildtype EGFR (Mut/WT): PACC, E709A, Ba/F3, 72 hours.

The next assay concerns the target T13, EGFR E709K (Homo sapiens, UniProt P00533, E709K).
T13 construct: expressed in transfected cells; host or cells: Ba/F3
The following applies: for ratio of IC50 for cells with mutant EGFR to IC50 for cells with wildtype EGFR (Mut/WT): PACC, E709K, Ba/F3, 72 hours.

In another assay the target is T14, EGFR L747S (Homo sapiens, UniProt P00533, L747S).
T14 construct: expressed in transfected cells; host or cells: Ba/F3
The conditions noted are these: for ratio of IC50 for cells with mutant EGFR to IC50 for cells with wildtype EGFR (Mut/WT): PACC, L747S, Ba/F3, 72 hours.

For another assay, the target named is T15, EGFR K757R (Homo sapiens, UniProt P00533, K757R).
T15 construct: expressed in transfected cells; host or cells: Ba/F3
The following applies: for ratio of IC50 for cells with mutant EGFR to IC50 for cells with wildtype EGFR (Mut/WT): PACC, K757R, Ba/F3, 72 hours.

A further assay addresses T16, EGFR V769L (Homo sapiens, UniProt P00533, V769L).
T16 construct: expressed in transfected cells; host or cells: Ba/F3
The conditions noted are these: for ratio of IC50 for cells with mutant EGFR to IC50 for cells with wildtype EGFR (Mut/WT): PACC, V769L, Ba/F3, 72 hours.

The next assay concerns the target T17, EGFR Ex19del G724S (Homo sapiens, UniProt P00533, DEL746-750/G724S).
T17 construct: expressed in transfected cells; host or cells: Ba/F3
The following applies: for ratio of IC50 for cells with mutant EGFR to IC50 for cells with wildtype EGFR (Mut/WT): PACC, Ex19del G724S, Ba/F3, 72 hours.

The target of the next assay is T18, EGFR Ex19del/L792H (Homo sapiens, UniProt P00533, DEL746-750/L792H).
T18 construct: expressed in transfected cells; host or cells: Ba/F3
The following applies: for ratio of IC50 for cells with mutant EGFR to IC50 for cells with wildtype EGFR (Mut/WT): PACC, Ex19del/L792H, Ba/F3, 72 hours.

The target of another assay is T19, EGFR Ex19del G796S (Homo sapiens, UniProt P00533, DEL746-750/G796S).
T19 construct: expressed in transfected cells; host or cells: Ba/F3
The conditions noted are these: for ratio of IC50 for cells with mutant EGFR to IC50 for cells with wildtype EGFR (Mut/WT): PACC, Ex19del G796S, Ba/F3, 72 hours.

A further assay deals with T20, EGFR Ex19del L718V (Homo sapiens, UniProt P00533, DEL746-750/L718V).
T20 construct: expressed in transfected cells; host or cells: Ba/F3
The following applies: for ratio of IC50 for cells with mutant EGFR to IC50 for cells with wildtype EGFR (Mut/WT): PACC, Ex19del L718V, Ba/F3, 72 hours.

Another assay addresses T21, EGFR Ex19del L718Q (Homo sapiens, UniProt P00533, DEL746-750/L718Q).
T21 construct: expressed in transfected cells; host or cells: Ba/F3
The conditions noted are these: for ratio of IC50 for cells with mutant EGFR to IC50 for cells with wildtype EGFR (Mut/WT): PACC, Ex19del L718Q, Ba/F3, 72 hours.

The target of another assay is T22, EGFR L858R G724S (Homo sapiens, UniProt P00533, G724S/L858R).
T22 construct: expressed in transfected cells; host or cells: Ba/F3 (retroviral transduction, pBabe-Puro based vectors)
The following applies: for ratio of IC50 for cells with mutant EGFR to IC50 for cells with wildtype EGFR (Mut/WT): PACC, L858R G724S, Ba/F3, 72 hours.

A further assay addresses T23, EGFR Ex19del T854I (Homo sapiens, UniProt P00533, DEL746-750/T854I).
T23 construct: expressed in transfected cells; host or cells: Ba/F3 (retroviral transduction, pBabe-Puro based vectors)
The conditions noted are these: for ratio of IC50 for cells with mutant EGFR to IC50 for cells with wildtype EGFR (Mut/WT): PACC, Ex19del T854I, Ba/F3, 72 hours.

On to `COc1cc2ncnc(Nc3ccc(F)c(Cl)c3)c2cc1NC(=O)/C=C/CN1CCCCC1` [Dacomitinib], for which the “ratio of IC50 for cells with mutant EGFR to IC50 for cells with wildtype EGFR (Mut/WT)” value (“ratio of IC50 for cells with mutant EGFR” for short) was 0.08997 on EGFR S784F; 0.06272 on EGFR L833V; 0.03062 on EGFR T725M; 0.001653 on EGFR L861R; 0.0008794 at EGFR D761N; 3.057 on EGFR A767insASV. The “ratio of IC50 for cells with mutant EGFR” value at EGFR S768dupSVD V769M is 3.097; on EGFR G719A T790M it was 0.9195; on EGFR L858R T790M V843I it was 20.06; on EGFR L858R/T790M/L718Q it was 45.78; on EGFR L858R/T790M/C797S it was 41.69; on EGFR E709A, 0.04024. Besides, the “ratio of IC50 for cells with mutant EGFR” value at EGFR E709K is reported as 0.2711; at EGFR L747S, 0.006377; at EGFR K757R it was 0.04087; on EGFR V769L, 0.1402; on EGFR Ex19del G724S it was 0.1707; at EGFR Ex19del/L792H, 0.2436. Moreover, the “ratio of IC50 for cells with mutant EGFR” value at EGFR Ex19del G796S was 0.2371; on EGFR Ex19del L718V, 0.0061; at EGFR Ex19del L718Q it was 0.03226; on EGFR L858R G724S it was 0.0005712; on EGFR Ex19del T854I it was 0.4127.
As for `Cc1cc(C(=O)Nc2nc3cccc(Cl)c3n2[C@@H]2CCCCN(C(=O)/C=C/CN(C)C)C2)ccn1` [Nazartinib], the “ratio of IC50 for cells with mutant EGFR” value at EGFR S784F is 0.03107; on EGFR L833V, 0.002739; at EGFR T725M, 0.04541; on EGFR L861R, 0.01121; at EGFR D761N, 0.0009686; at EGFR A767insASV, 0.6382. Further, the “ratio of IC50 for cells with mutant EGFR” value turned out to be 0.3262 at EGFR S768dupSVD V769M; 0.02653 on EGFR G719A T790M; 0.02498 on EGFR L858R T790M V843I; 0.7714 at EGFR L858R/T790M/L718Q; 2.649 on EGFR L858R/T790M/C797S. The “ratio of the IC50 value for cells with a PACC EGFR mutation to the IC50 value for cells with wildtype EGFR” value on EGFR E709A (Ba/F3 cells, EGFR E709A (PACC), Mut/WT) worked out at 0.07784; at EGFR E709K (Ba/F3 cells, EGFR E709K (PACC), Mut/WT), 0.0309; on EGFR L747S (Ba/F3 cells, EGFR L747S (PACC), Mut/WT) it was 0.06302; on EGFR K757R (Ba/F3 cells, EGFR K757R (PACC), Mut/WT) it was 0.3486; at EGFR V769L (Ba/F3 cells, EGFR V769L (PACC), Mut/WT), 0.1771; at EGFR Ex19del G724S (Ba/F3 cells, EGFR Ex19del G724S (PACC), Mut/WT), 1.068. The “ratio of the IC50 value for cells with a PACC EGFR mutation to the IC50 value for cells with wildtype EGFR” value at EGFR Ex19del/L792H (Ba/F3 cells, EGFR Ex19del/L792H (PACC), Mut/WT) was found to be 0.5146; at EGFR Ex19del G796S (Ba/F3 cells, EGFR Ex19del G796S (PACC), Mut/WT), 0.6604; on EGFR Ex19del L718V (Ba/F3 cells, EGFR Ex19del L718V (PACC), Mut/WT), 0.04632; at EGFR Ex19del L718Q (Ba/F3 cells, EGFR Ex19del L718Q (PACC), Mut/WT), 0.03801; on EGFR L858R G724S (Ba/F3 cells, EGFR L858R G724S (PACC), Mut/WT), 0.009244; at EGFR Ex19del T854I (Ba/F3 cells, EGFR Ex19del T854I (PACC), Mut/WT) it was 1.135.
As for `CNC(=O)CN1CCC(Oc2cc3c(Nc4cccc(Cl)c4F)ncnc3cc2OC)CC1` [Sapatinib], the “ratio of IC50 for cells with mutant EGFR” value on EGFR S784F was determined as 0.08508; on EGFR L833V, 0.008594; at EGFR T725M it was 0.00667; at EGFR L861R, 0.002811; on EGFR D761N, 0.001814; at EGFR A767insASV, 2.233. For the same molecule, the “ratio of IC50 for cells with mutant EGFR” value at EGFR S768dupSVD V769M is recorded as 1.596; on EGFR G719A T790M, 54.78; on EGFR L858R T790M V843I, 49; at EGFR L858R/T790M/C797S it was 66.82; on EGFR E709A it was 0.3243; on EGFR E709K it was 0.1216. Moreover, the “ratio of IC50 for cells with mutant EGFR” value at EGFR L747S stood at 0.005189; on EGFR K757R, 0.3144; on EGFR V769L it was 0.1992; at EGFR Ex19del G724S, 27.39; at EGFR Ex19del/L792H it was 53.47; at EGFR Ex19del G796S it was 3.423. Also, the “ratio of IC50 for cells with mutant EGFR” value was 0.08016 at EGFR Ex19del L718V, 0.7162 on EGFR Ex19del L718Q, 0.0004959 on EGFR L858R G724S and 0.2548 on EGFR Ex19del T854I.
